According to patent publication EP4721737A1, “USE OF PHARMACEUTICAL COMPOSITION COMPRISING COMPOUND HAVING BIS(AZANYLYLIDENE) SULFONYL STRUCTURE FOR TREATING ANEMIA-RELATED DISEASES” (Scinnohub Pharmaceutical Co., Ltd., priority 2023, dated 2024):

What was measured:
[1] = target: T1, PKR in ex vivo red blood cells from healthy individuals (Homo sapiens, UniProt P30613); assay: ex vivo pyruvate kinase (PKR) activity experiment, red blood cells of healthy individuals; format: cell-based; conditions: 3 hours co-cultivation
T1 construct: endogenous in cells; host or cells: human red blood cells isolated from fresh peripheral blood of healthy individuals
Experimental: To test the effects of the compound of the present disclosure on PKR activation in ex vivo red blood cells from healthy individuals and patients with thalassemia.
• i. 5 g of glucose, 85 mg of adenine, and 2.625 g of mannitol were weighed and added into a 50 mL centrifuge tube. 40 mL of PBS was added to dissolve (sonicate for 30 minutes until completely dissolved). The solution was filtered through a 0.22 µm filter, then added to 460 mL of sterile PBS and mixed thoroughly.
• i. Fresh human peripheral blood was collected. K2EDTA was used as the anticoagulant. 1 part anticoagulant with 9 parts blood was mixed, then centrifuged at 500 g for 10 minutes at room temperature to remove the plasma. • ii. Packed red blood cells: 1.5 volumes of PBS were added, then centrifuged at 2000 ×g for 5 minutes at room temperature. After centrifugation, the supernatant was removed. This step was repeated twice. • iii. Diluted red blood cells: 1.5 volumes of PBS were added, then resuspended and mixed thoroughly. • iv. The diluted red blood cells were slowly added to 0.5 volume of 70% isotonic solution (e.g., 7.5 mL of diluted red blood cells + 3 mL of 70% isotonic solution Percoll) and centrifuged at 4000 ×g for 20 minutes at 4°C. • v. The supernatant was removed. The red blood cells at the bottom were washed once with 4-5 mL of PBS to elute the Percoll gel, and then centrifuged at 2000 ×g for 5 minutes at room temperature. • vi. The supernatant was removed. The red blood cells were counted and then diluted in AGAM medium containing 10% FBS to a density of 2 × 10^8 cells/mL for storage at 4°C.
i. The red blood cells were seeded into a 96-well plate at a uniform density of 1 × 10^7 cells/mL, with 100 µL per well. The test compounds (dissolved in DMSO) were diluted and added to the cell culture medium, resulting in final compound concentrations of 3000, 1000, 300, 100, 10, 3, and 1 nM (with 1% DMSO). The cells and compounds were co-cultivated for 3 hours in a 37°C incubator with 5% CO2. Subsequently, the plate was centrifuged at 2000 g for 20 minutes, and the supernatant was discarded. 100 µL of red blood cell lysis buffer was added to the cell pellet, vortexed for 20 minutes, and centrifuged at 4000 g for 5 minutes. The supernatant was collected for analysis. ii. The reaction system was prepared according to the kit instructions (shown as the table below), 10 µL of the reaction system was added to each well of a 384-well plate, and 10 µL of red blood cell lysis buffer was took and mixed well (20 µL reaction system).
iii. A black, transparent-bottomed 384-well plate was placed in a microplate reader to measure fluorescence at 540/590 nm. The fluorescence was read every 2 minutes for 1 hour.
i. The Slope value was calculated over the assay time. Compound activation percentage was calculated using the 1% DMSO well as the control well. Activation percentage = (Slope of compound well / Slope of control well) × 100% ii. Dose-response curve was fit using the logarithmic compound concentration on the X-axis and the percent activation percentage on the Y-axis, the log(agonist) vs. response - variable slope function in GraphPad Prism 5 was used to determine the AC50 value for each compound on PKR activity. Y = min + (max−min)/(1+10^(∧)((LogAC50−X)×Hillslope)). [formula] The PKR agonist effects of the compound of the present disclosure on ex vivo red blood cells from healthy individuals and thalassemia patients were determined using the above assay. The AC50 values measured on ex vivo red blood cells from healthy individuals are as follows (A represents 0-100 nM, B represents 101-300 nM, and C represents 300-1000 nM): […]

recombinant human PKR = recombinant human PKR (Homo sapiens, UniProt P30613); assay: pyruvate kinase (PKR) activity test, activation of recombinant enzyme (fluorescence kit); format: biochemical
Experimental: To test the activation effect of the compound of the present disclosure on recombinant human PKR.
3.1 A recombinant human PKR enzyme solution was prepared at a concentration of 60 ng/well (a 20 µL reaction system), and 5 µL of the solution was added into each well of a black transparent bottom 384-well plate.
3.2 Compound solutions were prepared at different concentrations, with the final concentrations of 1000/300/100 nM (containing 1% DMSO). Each 5 µL of the compound solution was added into the plate in step 3.1 and mixed well. The plate was incubated at room temperature for 10 min.
3.3 A reaction system was prepared according to the instructions of a kit (as shown in the table below), and 10 µL of the reaction system was added into each well of the 384-well plate, and mixed uniformly with the solution in step 3.2.
3.4 The 384-well plate was placed on a microplate reader to detect the fluorescence value at 540/590 nm, where the value was read every 2 minutes and the detection was conducted continuously for 1 hour.
3.5 The Slope value within the detection time was calculated, and the 1% DMSO well was used as a control well to calculate a compound activation rate. Activation rate % = (Slopeofcompoundwell/Slopeofcontrolwell) × 100% [formula]
With the log value of the compound concentration as the X axis and the percentage activation rate as the Y axis, a dose-effect curve was fitted with the log(agonist) vs. response-variable slope of the analysis software GraphPad Prism 5, and the AC50 value of the activity of each compound against PKR was obtained. Y = min + (max−min)/(1+10^(∧)((LogAC50−X)×Hillslope)). [formula]

Sequence of recombinant human PKR (P30613 whole entry): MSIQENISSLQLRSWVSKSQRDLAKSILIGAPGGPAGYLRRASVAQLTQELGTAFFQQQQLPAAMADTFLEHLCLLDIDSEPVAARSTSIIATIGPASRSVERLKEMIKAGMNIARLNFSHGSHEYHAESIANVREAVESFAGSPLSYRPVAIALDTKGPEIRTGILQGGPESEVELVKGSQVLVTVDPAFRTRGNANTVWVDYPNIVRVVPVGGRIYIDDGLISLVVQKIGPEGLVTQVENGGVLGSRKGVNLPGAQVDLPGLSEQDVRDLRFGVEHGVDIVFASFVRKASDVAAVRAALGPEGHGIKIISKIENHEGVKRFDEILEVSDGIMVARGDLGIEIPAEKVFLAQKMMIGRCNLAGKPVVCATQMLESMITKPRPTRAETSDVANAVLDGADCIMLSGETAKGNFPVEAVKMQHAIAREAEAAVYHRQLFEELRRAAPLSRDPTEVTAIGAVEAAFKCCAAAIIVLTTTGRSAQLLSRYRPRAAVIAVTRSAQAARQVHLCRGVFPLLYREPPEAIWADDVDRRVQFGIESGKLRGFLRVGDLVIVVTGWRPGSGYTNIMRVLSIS
T1 sequence (P30613 whole entry): as above

SMILES	AC50 [1]	AC50 (recombinant human PKR)
CNCC(C(=O)N1CC(=C2CN(S(=O)(=O)c3ccc4c(c3)OCCO4)C2)C1)c1cccc(Cl)c1 (centres unmarked) [Compound 26, 2-(3-chlorophenyl)-1-(1'-((2,3-dihydrobenzo[b][1,4]dioxin-6-yl)sulfonyl)-1',4'-dihydro-2H,2'H-[3,3'-diazetidinylidene]-1(4H)-yl)-3-(methylamino)propan-1-one]	300 to 1000 nM	< 100 nM
CN1CCOc2ccc(S(=O)(=O)N3CC(=C4CN(C(=O)[C@H](CO)c5ccccc5)C4)C3)cc21 [Compound 39, (S)-3-hydroxy-1-(1'-((4-methyl-3,4-dihydro-2H-benzo[b][1,4]oxazin-6-yl)sulfonyl)-1',4'-dihydro-2H, 2'H-[3,3'-diazetidinylidene]-1(4H)-yl)-2-phenylpropan-1-one]	< 100 nM	< 100 nM
COc1ccc(C(CO)C(=O)N2CC(=C3CN(S(=O)(=O)c4ccccn4)C3)C2)cc1 (centres unmarked) [Compound 53, 3-hydroxy-2-(4-methoxyphenyl)-1-(1'-(pyridin-2-ylsulfonyl)-1',4'-dihydro-2H,2'H-[3,3'-diazetidinylidene]-1(4H)-yl)propan-1-one]	101 to 300 nM	300 to 1000 nM
Cc1ccc(C(CO)C(=O)N2CC(=C3CN(S(=O)(=O)c4ccccn4)C3)C2)cc1 (centres unmarked) [Compound 57, 3-hydroxy-1-(1'-(pyridin-2-ylsulfonyl)-1',4'-dihydro-2H,2'H-[3,3'-diazetidinylidene]-1(4H)-yl)-2-(p-tolyl)propan-1-one]	< 100 nM	101 to 300 nM
O=C(N1CC(=C2CN(S(=O)(=O)c3ccccn3)C2)C1)C1(c2ccccc2)CCOCC1 [Compound 58]	101 to 300 nM	101 to 300 nM
O=C(C(CO)c1cccnc1)N1CC(=C2CN(S(=O)(=O)c3ccccn3)C2)C1 (centres unmarked) [Compound 60, 3-hydroxy-1-(1'-(pyridin-2-ylsulfonyl)-1',4'-dihydro-2H,2'H-[3,3'-diazetidinylidene]-1(4H)-yl)-2-(pyridin-3-yl)propan-1-one]	300 to 1000 nM	300 to 1000 nM
CC(C)(O)C(C(=O)N1CC(=C2CN(S(=O)(=O)c3ccccn3)C2)C1)c1ccccc1 (centres unmarked) [Compound 62, 3-hydroxy-3-methyl-2-phenyl-1-(1'-(pyridin-2-ylsulfonyl)-1',4'-dihydro-2H,2'H-[3,3'-diazetidinylidene]-1(4H)-yl)butan-1-one]	300 to 1000 nM	300 to 1000 nM
COc1ccc(S(=O)(=O)N2CC(=C3CN(C(=O)[C@H](CO)c4ccccc4)C3)C2)nc1 [Compound 67, (S)-3-hydroxy-1-(1'-((5-methoxypyridin-2-yl)sulfonyl)-1',4'-dihydro-2H,2'H-[3,3'-diazetidinylidene]-1(4H)-yl)-2-phenylpropan-1-one]	< 100 nM	< 100 nM
CCOc1ccc(S(=O)(=O)N2CC(=C3CN(C(=O)[C@H](CO)c4ccccc4)C3)C2)nc1 [Compound 72, (S)-1-(1'-((5-ethoxypyridin-2-yl)sulfonyl)-1',4'-dihydro-2H,2'H-[3,3'-diazetidinylidene]-1(4H)-yl)-3-hydroxy-2-phenylpropan-1-one]	< 100 nM	< 100 nM
O=C(C(CF)c1ccccc1)N1CC(=C2CN(S(=O)(=O)c3ccccn3)C2)C1 (centres unmarked) [Compound 73, 3-fluoro-2-phenyl-1-(1'-(pyridin-2-ylsulfonyl)-1',4'-dihydro-2H,2'H-[3,3'-diazetidinylidene]-1(4H)-yl)propan-1-one]	101 to 300 nM	101 to 300 nM

Second part, the molecule after the results:

AC50 [1]	AC50 (recombinant human PKR)	SMILES
< 100 nM	300 to 1000 nM	NC(C(=O)N1CC(=C2CN(S(=O)(=O)c3ccc(OC(F)F)cc3)C2)C1)c1ccccc1 (centres unmarked) [Compound 21, 2-amino-1-(1'-((4-(difluoromethoxy)phenyl)sulfonyl)-1',4'-dihydro-2H,2'H-[3,3'-diazetidinylidene]-1 (4H)-yl)-2-phenylethan-1-one]
300 to 1000 nM	300 to 1000 nM	O=C([C@H](CO)c1ccccc1)N1CC(=C2CN(S(=O)(=O)c3ccc(-c4ncco4)c(F)c3)C2)C1 [Compound 27, (S)-1-(1'-((3-fluoro-4-(oxazol-2-yl)phenyl)sulfonyl)-1',4'-dihydro-2H,2'H-[3,3'-diazetidinylidene]-1(4 H)-yl)-3-hydroxy-2-phenylpropan-1-one]
< 100 nM	< 100 nM	O=C(N1CC(=C2CN(S(=O)(=O)c3ccc4ncsc4c3)C2)C1)C1(c2ccccc2)CCOCC1 [Compound 29, (1'-(benzo[d]thiazol-6-ylsulfonyl)-1',4'-dihydro-2H,2'H-[3.3'-diazetidinylidene]-1(4H)-yl)(4-phenyltetrahydro-2H-pyran-4-yl)methanone]
< 100 nM	< 100 nM	Cc1nc2ccc(S(=O)(=O)N3CC(=C4CN(C(=O)[C@H](CO)c5ccccc5)C4)C3)cc2s1 [Compound 35, (S)-3-hydroxy-1-(1'-((2-methylbenzo[d]thiazol-6-yl)sulfonyl)-1',4'-dihydro-2H,2'H-[3,3'-diazetidinylidene]-1(4H)-yl)-2-phenylpropan-1-one]
300 to 1000 nM	300 to 1000 nM	O=C(Cc1ccccc1)N1CC(=C2CN(S(=O)(=O)c3ccc4ncsc4c3)C2)C1 [Compound 47, 1-(1'-(benzo[d]thiazol-6-ylsulfonyl)-1',4'-dihydro-2H,2'H-[3,3'-diazetidinylidene]-1(4H)-yl)-2-phenyl ethan-1-one]
< 100 nM	< 100 nM	O=C(C(CO)c1ccc(F)cc1)N1CC(=C2CN(S(=O)(=O)c3ccc4ncsc4c3)C2)C1 [Compound 50, (S)-1-(1'-(benzo[d]thiazol-6-ylsulfonyl)-1',4'-dihydro-2H,2'H-[3,3'-diazetidinylidene]-1(4H)-yl)-2-(4-fluorophenyl)-3-hydroxypropan-1-one]
300 to 1000 nM	300 to 1000 nM	O=C(c1c[nH]c2ccccc12)N1CC(=C2CN(S(=O)(=O)c3ccc4ncsc4c3)C2)C1 [Compound 52, (1'-(benzo[d]thiazol-6-ylsulfonyl)-1',4'-dihydro-2H,2'H-[3,3'-diazetidinylidene]-1(4H)-yl)(1H-indol-3-yl)methanone]
300 to 1000 nM	300 to 1000 nM	O=C(c1c[nH]c2ccccc12)N1CC(=C2CN(S(=O)(=O)c3ccccn3)C2)C1 [Compound 56, (1H-indol-3-yl)(1'-(pyridin-2-ylsulfonyl)-1',4'-dihydro-2H,2'H-[3,3'-diazetidinylidene]-1(4H)-yl)met hanone]
300 to 1000 nM	300 to 1000 nM	O=C(C1NCc2ccccc21)N1CC(=C2CN(S(=O)(=O)c3ccc4ncsc4c3)C2)C1 (centres unmarked) [Compound 64, (1'-(benzothiazol-6-ylsulfonyl)-1',4'-dihydro-2H,2'H-[3,3'-diazetidinylidene]-1(4H)-yl)(isoindolin-1-yl)methanone]
